Results: US20250051301A1, “MUTANT IDH1 AND IDH2 INHIBITOR AND APPLICATION THEREOF” (Betta Pharmaceuticals Co., Ltd, priority 2022, published 2025)
Converted amounts (≈) assume the structure as drawn.

Tests used:
mutant IDH1 = details: AML or MDS patients carrying IDH1 gene mutations, Phase I; cited from earlier work
IDH2^R140Q = biological target: T1, IDH2^R140Q (Homo sapiens, UniProt P48735, R140Q); experiment: Enzyme activity inhibition assay (fluorescence-based), IDH2 R140Q; type: biochemical
T1 sequence (P48735 40-452 R140Q): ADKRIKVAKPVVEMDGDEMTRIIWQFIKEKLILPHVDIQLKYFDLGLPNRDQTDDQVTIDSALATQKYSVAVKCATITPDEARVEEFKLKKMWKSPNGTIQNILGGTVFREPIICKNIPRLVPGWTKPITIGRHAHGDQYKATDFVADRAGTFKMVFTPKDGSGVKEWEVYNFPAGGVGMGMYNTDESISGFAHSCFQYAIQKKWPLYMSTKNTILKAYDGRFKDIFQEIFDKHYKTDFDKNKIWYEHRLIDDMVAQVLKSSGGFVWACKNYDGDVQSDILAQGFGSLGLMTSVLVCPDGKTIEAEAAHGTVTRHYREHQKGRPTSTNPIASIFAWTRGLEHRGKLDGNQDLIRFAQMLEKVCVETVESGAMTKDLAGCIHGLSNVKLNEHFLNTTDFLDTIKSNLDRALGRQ
Procedure: (§1) The inhibitory ability of the compounds on the enzyme activities of IDH1^R132H and IDH2^R140Qwas detected and expressed as the half inhibitory concentration (IC50) value. AG-881 was used as a positive control compound. In this experiment, compounds were screened on enzymes IDH1^R132H and IDH2^R140Q using a fluorescence-based method (initial concentration: 10000 nM, 3-fold dilution, 10 concentrations, and single-well detection). • (1) Preparation of 1×assay buffer. • (2) Preparation of compound concentration gradient: the compounds to be tested were assayed at an initial concentration of 10000 nM, with 3-fold dilution and 10 concentrations, and diluted into 200-fold the final concentration in 100% DMSO solution in a 384-well plate. • (3) 250 nL of DMSO and 250 nL of diluted compounds were transferred to a reaction plate with Echo 550. • (4) IDH2^R140Q enzyme detection: 25 μL of an IDH2^R140Q enzyme solution was added, and the mixture was incubated for 60 minutes; then 25 μL of a substrate solution was added, and the mixture was incubated for 150 minutes; then 25 μL of a detection buffer was added, and the mixture was shaken for 1 minute and incubated for 60 minutes; and finally, Synergy 2, Ex544/Em590 cutoff 590 was used for reading. • (5) IDH1^R132H enzyme detection: 40 μL of a mixture solution of an IDH1^R132H enzyme at the 1.25-fold final concentration and NADPH was added, and the mixture was incubated for 60 minutes; then 10 μL of a substrate solution at the 5-fold final concentration was added, and the mixture was incubated for 90 minutes; then 25 μL of a detection buffer at the 3-fold final concentration was added, and the mixture was shaken for 1 minute. and finally, Synergy 2, Ex544/Em590 cutoff 590 was used for reading. • (8) Inhibition rate calculation, formula: % Inhibition=(RFU_sample−RFU_min)/(RFU_max−RFU_min)*100%, wherein RFU-sample represents the fluorescence intensity of a sample; RFU-min represents the average value of negative control wells and represents the fluorescence intensity with an enzyme; and RFU-max represents the average value of positive control wells and represents the fluorescence intensity without an enzyme. The curve fitting was performed using Graphpad Prism software to obtain IC50 values, and the test results were as shown in table 2.

IDH1^R132H [1] = biological target: T2, IDH1^R132H (Homo sapiens, UniProt O75874, R132H); experiment: Enzyme activity inhibition assay (fluorescence-based), IDH1 R132H; type: biochemical
Procedure: as §1

IDH1^R132H [2] = biological target: T2, IDH1^R132H; experiment: 2-HG assay in cells (U87 cell line stably transfected with IDH1-R132H); type: cell-based; details: 72 hours, read-out: 2-HG in medium (IC50, nM) (IDH1^R132H)
Procedure: The compounds were detected for the inhibition of 2-HG production in the U87 cell line stably transfected with IDH1-R132H and the culture supernatant of TF-1 cells stably transfected with IDH2-R140Q. • (1) The cultured cells were collected by centrifugation, then suspended in a cell culture solution, counted, and seeded in a 96-well cell culture plate at 160 μL of cell suspension/well (20000 cells/well for U87-IDH1-R132H; 10000 cells/well for TF-1-IDH2-R140Q). • (2) A 96-well plate dilution was taken, and the compounds to be tested were diluted in a gradient manner in DMSO and a cell culture solution; and then 40 μL of the gradient-diluted compounds to be tested were added to the 96-well plate on which cells have been plated. […] Finally, the plate was cultured in a 37° C. incubator containing 5% CO2. • (3) After the compounds were incubated with the cells for 72 hours, the cell culture plate was taken out and centrifuged at 1500 rpm for 5 minutes, and then 100 μL of the medium supernatant was aspirated for 2-HG detection. • (4) 2-HG detection: the cell supernatant was diluted with purified water, 30 μL of the diluted sample was taken into a 1.5 ml centrifuge tube, and 200 μL of the internal standard solution was added. The mixture was mixed uniformly by vortex and centrifuged at 3200 rpm at 4° C. for 15 minutes. 100 μL of the supernatant solution was diluted with water at a 1:1 ratio and then detected by LC-MS. Analyte Peak Area was used to represent the 2-HG levels. • (5) Inhibition rate calculation, formula: % Inhibition=(1−Analyte Peak Area_sample/Analyte Peak Area_max)*100%, wherein Analyte Peak Area_sample represents the Analyte Peak Area of the sample to which the compound was added; Analyte Peak Area_max represents the average value of Analyte Peak Area of positive control wells (representing the absence of the compound). The curve fitting was performed using Graphpad Prism software to obtain IC50 values, and the test results were as shown in table 2.

[3] = Pharmacokinetic detection in dogs; type: in vivo; details: beagle dogs
Procedure: Adult beagle dogs (6-12 months of age) received a single dose of the compounds to be tested via intravenous administration (IV) or oral gavage administration (PO), respectively. In the IV single dose, 5% DMSO+5% Solutol+90% physiological saline was used as the excipient; the intravenous administration was carried out at a dose of 1 mg/kg (2 females and 2 males); and the venous blood collection time was 5 min, 15 min, 0.5 h, 1 h, 2 h, 4 h, 6 h, 8 h, 10 h and 24 h. In the PO single dose, 5% DMSO+5% Solutol+90% purified water was used as the excipient; the oral gavage administration was carried out at a dose of 5 mg/kg (2 females and 2 males); and the blood collection time was 15 min, 0.5 h, 1 h, 2 h, 4 h, 6 h, 8 h, 10 h and 24 h. Blood samples were collected in tubes containing EDTA anticoagulants and centrifuged at 4000 rpm at 4° C. for 10 min, and the supernatants were transferred to centrifuge tubes and stored at −20° C. For the detection, 30 μL of the plasma supernatant sample was taken, and 200 μL of an internal standard solution was added. The mixture was centrifuged at 3000 rpm for 10 minutes. Then, 100 μL of the supernatant solution was diluted with water at a 1:1 ratio and then injected with an injection volume of 5 μL. The concentration of the compounds to be tested in the plasma sample was analyzed by liquid chromatography-tandem mass spectrometry (LC-MS/MS). Plasma concentration-time data for individual animals were analyzed using Sciex Analyst software. The non-compartment model was introduced into the concentration analysis, and pharmacokinetic parameters (Cl_obs, Cmax and AUClast) of the compounds to be tested were calculated using WinNonlin (version 4.1; pHarsight) software.

[4] = Kinetic solubility experiment; type: physicochemical; details: buffer, kinetic from dmso stock
Procedure: 1. Preparation of Solutions/Buffers at Different pH Values
• Solution A: 17.42 g of K2HPO4 was weighed and dissolved in 1 L of ultrapure water. • Solution B: 13.65 g of KH2PO4 was weighed and dissolved in 1 L of ultrapure water.
A certain mass of substance to be tested was accurately weighed and dissolved in a certain volume of DMSO to obtain a 20 mM or 10 mM stock solution.
An acetonitrile stopping solution containing 1 ng/mL of labetalol and glibenclamide was prepared.
3. Incubation System (n=3)
The above-mentioned solutions were placed in a 96-well plate, respectively and shaken in a thermostatic oscillator for 2 hours (37° C., 150 rpm).
4. Control solution: 200 μM control solution of the substance to be tested was prepared in methanol. 5. Sample treatment
At a predetermined time, the 96-well plate was placed in a centrifuge and centrifuged at 4100 rpm for 15 minutes. A certain volume of the supernatant and a certain volume of control solution were respectively taken into 19 times volume of water containing 70% acetonitrile that has been previously added. The mixture was uniformly mixed, diluted 20 times with an internal standard stop solution and shaken in a thermostatic oscillator at 700 rpm at room temperature for 5 min. Further dilution may be necessary depending on the sensitivity of the compound, and sample analysis was performed by LC-MS/MS.
The ratio of compound peak area to internal standard peak area was used for calculation. According to the concentration relationship between the compound in the buffer and the control solution, the calculated concentration was the kinetic solubility, and the calculation formula was as follows:
Solubility(μg/mL)=mass spectral peak area of the compound to be tested in buffers at different pHs×200μM×molecular weight of the compound to be tested(MW)/mass spectral peak area of the compound to be tested in methanol/1000;

[5] = both sexes, dog, plasma, PO, 5 mg/kg

T2 sequence (O75874 whole entry R132H): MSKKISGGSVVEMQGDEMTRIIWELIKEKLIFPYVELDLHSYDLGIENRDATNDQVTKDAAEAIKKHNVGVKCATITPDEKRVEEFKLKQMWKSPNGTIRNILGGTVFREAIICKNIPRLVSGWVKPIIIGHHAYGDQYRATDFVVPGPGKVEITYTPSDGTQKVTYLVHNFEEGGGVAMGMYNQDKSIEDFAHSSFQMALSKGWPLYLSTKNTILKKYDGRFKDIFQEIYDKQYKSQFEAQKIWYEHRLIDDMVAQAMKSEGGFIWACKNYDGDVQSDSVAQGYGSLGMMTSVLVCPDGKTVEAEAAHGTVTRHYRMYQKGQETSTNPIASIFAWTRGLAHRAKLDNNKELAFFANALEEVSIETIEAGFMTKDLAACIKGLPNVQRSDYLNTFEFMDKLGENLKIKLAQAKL

| IC50 (IDH2^R140Q; class symbols) | IC50 (IDH1^R132H [1]; class symbols) | IC50 (IDH1^R132H [2]; class symbols) | Compound | also measured |
| --- | --- | --- | --- | --- |
| – | – | – | N#Cc1ccnc(N2C(=O)CC[C@H]2C(=O)N(c2cncc(F)c2)[C@H](C(=O)NC2CC(F)(F)C2)c2ccccc2Cl)c1 [AG-120] | patients in whom a decrease in α-hydroxyglutaric acid (2-HG) levels was observed (mutant IDH1): 98% |
| – | – | – | C[C@@H](Nc1nc(N[C@H](C)C(F)(F)F)nc(-c2cc(Cl)c(N)c(Cl)n2)n1)C(F)(F)F [Example 1] | IC50 (IDH2^R140Q; numeric values): 128 nM; IC50 (IDH1^R132H [1]; numeric values): 143 nM; IC50 (IDH1^R132H [2]; numeric values): 26 nM |
| 100 to 1000 nM | > 1000 nM | 50 to 100 nM | Cc1cc(-c2nc(N[C@H](C)C(F)(F)F)nc(N[C@H](C)C(F)(F)F)n2)nc(Cl)c1N [Example 7, 6-(5-amino-6-chloro-4-methylpyridin-2-yl)-N^2,N^4-bis((R)-1,1,1-trifluoropropyl-2-yl)-1,3,5-triazine-2,4-diamine] | – |
| 100 to 1000 nM | > 1000 nM | 100 to 1000 nM | C[C@@H](Nc1nc(N[C@H](C)C(F)(F)F)nc(-c2cc(C(F)F)c(N)c(Cl)n2)n1)C(F)(F)F [Example 8, 6-(5-amino-6-chloro-4-(difluoromethyl)pyridin-2-yl)-N^2,N^4-bis((R)-1,1,1-trifluoroprop-2-yl)-1,3,5-triazine-2,4-diamine] | – |
| 50 to 100 nM | 50 to 100 nM | > 1000 nM | C[C@@H](Nc1nc(N[C@H](C)C(F)(F)F)nc(-c2cc(F)c(Br)c(Cl)n2)n1)C(F)(F)F [Example 18, 6-(5-bromo-6-chloro-4-fluoropyridin-2-yl)-N^2,N^4-bis((R)-1,1,1-trifluoroprop-2-yl)-1,3,5-triazine-2,4-diamine] | – |
| 50 to 100 nM | 50 to 100 nM | > 1000 nM | C[C@@H](Nc1nc(N[C@H](C)C(F)(F)F)nc(-c2cc(Cl)c(O)c(Cl)n2)n1)C(F)(F)F [Example 19, 6-(4,6-dichloro-5hydroxylpyridin-2-yl)-N^2,N^4-bis((R)-1,1,1-trifluoroprop-2-yl)-1,3,5-triazine-2,4-diamine] | – |
| 100 to 1000 nM | 100 to 1000 nM | ≤ 50 nM | C[C@@H](Nc1nc(N[C@H](C)C(F)(F)F)nc(-c2cc(F)c(N)c(F)n2)n1)C(F)(F)F [Example 23, 6-(5-amino-4,6-difluoropyridin-2-yl)-N^2,N^4-bis((R)-1,1,1-trifluoroprop-2-yl)-1,3,5-triazine-2,4-diamine] | – |
| – | 100 to 1000 nM | 100 to 1000 nM | C[C@@H](Nc1nc(N[C@H](C)C(F)(F)F)nc(-c2cc(C(F)(F)F)c(N)c(Cl)n2)n1)C(F)(F)F [Example 25, 6-(6-chloro-5-amino-4-(trifluoromethyl)pyridin-2-yl)-N^2,N^4-bis((R)-1,1,1-trifluoropropyl-2-yl)-1,3,5-triazine-2,4-diamine] | – |
| – | – | – | C[C@@H](Nc1nc(N[C@H](C)C(F)(F)F)nc(-c2cccc(Cl)n2)n1)C(F)(F)F [compound 1, reference compound] | Cl_obs ([3]; IV, 1 mg/kg): 24.2 mL/min/kg; AUC(0-t) ([3]; both sexes, dog, plasma, IV, 1 mg/kg): 653 ng·h/mL; AUC(0-t) [3, 5]: 2160 ng·h/mL; Cmax [3, 5]: 658 ng/mL; solubility at 2 h ([4]; aqueous buffer, pH = 3.0, 37° C.): 1.6 µg/mL (≈ 3.86 µM); solubility at 2 h ([4]; aqueous buffer, pH = 5.0, 37° C.): 1.4 µg/mL (≈ 3.38 µM); solubility at 2 h ([4]; aqueous buffer, pH = 7.4, 37° C.): 0.8 µg/mL (≈ 1.93 µM); solubility at 2 h ([4]; simulated gastric fluid, pH = 1.0, 37° C.): 39.6 µg/mL (≈ 95.5 µM) |
